Data published in US4680285A, “Treatment of malignant tumors with 2-(β-D-ribofuranosylthiazole-4-carboxamide related compounds” (priority 1985, dated 1987).
“Also recorded” adds a separate entry of the source. Where two headings read alike, the source gives them in different places.

Key:
[1] = system: P388 lymphocytic leukemia; test: P388 lymphocytic leukemia in vivo, median survival, 30-day test (Examples 7 and 8); design: species or system CD2 F1 female mice; conditions: for Percent Treated Animals/Control Animals / Treated Group Survival Time (median): Ex. 7a/8, saline with tween/80; for Treated Group Survival Time (median): control 12.6
Procedure: For examples 7 and 8, CD2 F1 female mice were used and challenged with P388 lymphocytic leukemia tumors. […] The test period was for thirty days in both Examples 7 and 8.
For Examples 7 and 8, as well as Examples 9 and 10 below, any animal of the drug treated group which survived beyond the end of the testing period was then evaluated and placed in one of three groups. The first group was designated as cured, meaning the animal was successfully cured of the tumor. The second group designation was no-takes, meaning survival of the animal was considered to be due to failure of tumor implant. The remaining group was designated as tumor survivors meaning the animals lived beyond the test cut-off date but could not be classified as either cured or no-takes.
For both Examples 7 and 8, thirty animals were used as the control group and six animals each were used at each dose level indicated in tables 3 and 4 below in the drug treated groups. In both Examples 7 and 8, for both the control group and the drug treated groups, tumors were induced by IP inoculation of tumor seed cells on day zero followed by initiation of drug treatment on day one. For both Examples 7a and 8, saline with tween/80 was used as the drug vehicle. For Examples 7b and 7c, water was used as the drug vehicle.
In both the control group and the drug treated group in Examples 7 and 8, the test animals were inoculated on day zero IP with 10^6 seed cells of P388 lymphocytic leukemia. In both Examples 7 and 8, treatment of the drug group was started on day one and the drug was given IP once daily for nine days. Day six was utilized as the cut-off data for death attributable to toxicity of the drug. […] Efficacy of treatment was determined by comparing median survival time of the drug treated animals compared to median survival time of the control animals, and is expressed as percentage increase of treated animals/control animals (T/C) as per Example 5.
In this example drug treated animals were injected IP with the dose level noted in Table 3 below. Six animals were treated at each dose level. No control animals survived beyond day 18 with a median death date of day 12.6.
This examples was performed as per Example 7a at dose levels as noted in table 3b below. A survivor at both the 700 and 800 mg/Kg level was judged as cured. No controls survived beyond day 12 and the mean death day of the control group was day 11.
This example was run as per Example 7a above at dose levels noted in Table 3c below. All controls were dead by day 14 with a mean death day of day 11.9. At the 500 mg/Kg level, one animal was judged as a cure.
Compound 2, 2-(2,3,5-tri-O-acetyl-β-D-ribofuranosyl)thiazole-4-carboxamide was tested as per Example 7a above at dose levels noted in Table 4 below. No controls survived beyond day 18 with an average death date of day 12.6.

[2] = system: type 1 herpes simplex virus; conditions: cited from earlier work
[3] = system: P388 lymphocytic leukemia; format: in vivo, CD2 F1 female mice; conditions: for Percent Treated Animals/Control Animals / Treated Group Survival Time (mean): nine days; for Treated Group Survival Time (mean): control 10.2
Source text: Compound 2, 2-(2,3,5-tri-O-acetyl-β-D-ribofuranosyl)thiazole-4-carboxamide was screened in a manner similar to that shown in Example 5, however, the tumor system used as the test tumor was P388 lymphocytic leukemia. 10^6 seed cells were used to initiate the tumor in both the control group and the drug treated group of animals. The same strain of mice was used except female mice were substituted for males. Test results were based on mean survival time and are expressed as T/C percentages (treated animals/control animals) as per Example 5.
In the drug treated animals, treatment was initiated one day after tumor inoculation and the drug was given at the dose levels noted below in table 2. Drug treatment was for nine days and drug toxicity, as in Example 5, was measured on day six.
Average day of death for the control group was 10.2 days whereas at the lowest level of drug treatment the treated animals survived for more than 15 days. As with Example 5, 125% increase in longevity of treated animals over control animals was taken as indicative of positive drug response.

type 3 rhinovirus = conditions: cited from earlier work
malignant tumors [4] = test: antitumor activity in vivo (general statements); conditions: summary statements
virus = conditions: cited from earlier work
[5] = system: type 3 parainfluenza virus; conditions: cited from earlier work
L-1210 lymphoid leukemia = L-1210 lymphoid leukemia in vivo, mean survival (Example 11); design: species or system CD2 F1 male mice; conditions: for Percent Treated Animals Control Animals / Treated Group Survival Time (mean): saline
Source text: For Example 9a and 9b, CD2 F1 male mice were used and challenged with L-1210 lymphoid leukemia. […] The test period was for thirty days. Test results are expressed as T/C as per Example 5.
In both the control groups and the drug treated groups in Examples 9a and 9b, the test animals were inoculated on day zero IP with 10^6 seed cells of L-1210 lymphoid leukemia. For Example 9a, drug treatment was started on day one and compound 1 given once daily for nine days. Day five was utilized as the cutoff date for death attributable to toxicity of the drug. […] Efficacy of treatment was determined by comparing mean survival time of drug treated animals with mean survival time of the control animals and is expressed as percentage increase of treated animals/control animals (T/C) as per Example 5.
The compound test dosage levels are as noted in tables 7a and 7b below for Example 11a and 11b respectively. In these examples, thirty-six control animals were used and six test animals each at the drug dose levels as is shown in tables 7a and 7b. Saline was used as the drug vehicle.
For both the control groups and the drug test groups, tumors were induced by IP inoculation of tumor seed cells on day zero followed by initiation of drug treatment on day one wherein compound 3 was given once daily for 5 days. Test results are expressed as T/C as per example 5.

malignant tumors [6] = conditions: known from literature; cited from earlier work
viruses = conditions: cited from earlier work

Compound: CC(=O)OC[C@H]1O[C@@H](c2nc(C(N)=O)cs2)[C@H](OC(C)=O)[C@@H]1OC(C)=O [Compound 2, 2-(2,3,5-Tri-O-Acetyl-β-D-Ribofuranosyl)thiazole-4-Carboxamide]
- Percent Treated Animals/Control Animals ([1]; 12.5 mg/Kg IP once daily x9): 110%
- Treated Group Survival Time (median) ([1]; 12.5 mg/Kg IP once daily x9): 13.7 days
- Percent Treated Animals/Control Animals ([1]; 25 mg/Kg IP once daily x9): 113%
- Treated Group Survival Time (median) ([1]; 25 mg/Kg IP once daily x9): 14.3 days
- Percent Treated Animals/Control Animals ([1]; 50 mg/Kg IP once daily x9): 121%
- Treated Group Survival Time (median) ([1]; 50 mg/Kg IP once daily x9): 15.3 days
- Percent Treated Animals/Control Animals ([1]; 100 mg/Kg IP once daily x9): 145%
- Treated Group Survival Time (median) ([1]; 100 mg/Kg IP once daily x9): 18.3 days
- Percent Treated Animals/Control Animals ([1]; 200 mg/Kg IP once daily x9): 150%
- Treated Group Survival Time (median) ([1]; 200 mg/Kg IP once daily x9): 19.0 days
- Percent Treated Animals/Control Animals ([1]; 400 mg/Kg IP once daily x9): 161%
- Treated Group Survival Time (median) ([1]; 400 mg/Kg IP once daily x9): 20.3 days
- surviving animals judged as no-take ([1]; Ex. 7a/8, 50 mg/Kg, thirty days): one surviving animal was judged as a no-take
- activity against P388 lymphocytic leukemia ([1]; Examples 7 and 8, multiple dose): active antitumor agents; also recorded: active against P388 lymphocytic leukemia
- DN 2 (Decision Network) criteria of the National Cancer Institute ([1]; P388): successfully passed
- in vitro antiviral activity [2]: only moderate activity
- Percent Treated Animals/Control Animals ([3]; 50 mg/Kg IP): 150%
- Treated Group Survival Time (mean) ([3]; 50 mg/Kg IP): 15.3 days
- Percent Treated Animals/Control Animals ([3]; 100 mg/Kg IP): 176%
- Treated Group Survival Time (mean) ([3]; 100 mg/Kg IP): 18.0 days
- Percent Treated Animals/Control Animals ([3]; 200 mg/Kg IP): 179%
- Treated Group Survival Time (mean) ([3]; 200 mg/Kg IP): 18.3 days
- survival of treated animals ([3]; lowest level of drug treatment, control 10.2 days): more than 15 days
- in vitro antiviral activity (type 3 rhinovirus): negative
- antitumor activity (malignant tumors [4]): effective antitumor agent when injected intraperitoneally
- number of deaths of test animals vs placebo control animals (virus; in vivo antiviral tests): equal to or exceeded the number of deaths of the placebo control animals
- in vivo antiviral activity (virus; in vivo): negative
- in vitro antiviral activity [5]: negative

Compound: NC(=O)c1csc([C@@H]2O[C@H](COP(=O)(O)O)[C@@H](O)[C@H]2O)n1 [Compound 3, 2-(5-O-Phosphoryl-β-D-Ribofuranosyl)thiazole-4 Carboxamide]
- antitumor activity (malignant tumors [4]): effective in vivo antitumor agents
- Percent Treated Animals Control Animals (L-1210 lymphoid leukemia; Ex. 11a, 50 mg/Kg once daily x5): 136%
- Treated Group Survival Time (mean) (L-1210 lymphoid leukemia; Ex. 11a, 50 mg/Kg once daily x5, control 8.3): 11.3 days
- Percent Treated Animals Control Animals (L-1210 lymphoid leukemia; Ex. 11a, 100 mg/Kg once daily x5): 186%
- Treated Group Survival Time (mean) (L-1210 lymphoid leukemia; Ex. 11a, 100 mg/Kg once daily x5, control 8.3): 15.5 days
- Percent Treated Animals Control Animals (L-1210 lymphoid leukemia; Ex. 11a, 200 mg/Kg once daily x5): 259%
- Treated Group Survival Time (mean) (L-1210 lymphoid leukemia; Ex. 11a, 200 mg/Kg once daily x5, control 8.3): 21.5 days
- Percent Treated Animals Control Animals (L-1210 lymphoid leukemia; Ex. 11a, 400 mg/Kg once daily x5): 183%
- Treated Group Survival Time (mean) (L-1210 lymphoid leukemia; Ex. 11a, 400 mg/Kg once daily x5, control 8.3): 15.2 days
- Percent Treated Animals Control Animals (L-1210 lymphoid leukemia; Ex. 11a, 800 mg/Kg once daily x5): 196%
- Treated Group Survival Time (mean) (L-1210 lymphoid leukemia; Ex. 11a, 800 mg/Kg once daily x5, control 8.3): 16.3 days
- Percent Treated Animals Control Animals (L-1210 lymphoid leukemia; Ex. 11b, 50 mg/Kg once daily x5): 128%
- Treated Group Survival Time (mean) (L-1210 lymphoid leukemia; Ex. 11b, 50 mg/Kg once daily x5, control 10.1): 13.0 days
- Percent Treated Animals Control Animals (L-1210 lymphoid leukemia; Ex. 11b, 100 mg/Kg once daily x5): 121%
- Treated Group Survival Time (mean) (L-1210 lymphoid leukemia; Ex. 11b, 100 mg/Kg once daily x5, control 10.1): 12.3 days
- Percent Treated Animals Control Animals (L-1210 lymphoid leukemia; Ex. 11b, 200 mg/Kg once daily x5): 145%
- Treated Group Survival Time (mean) (L-1210 lymphoid leukemia; Ex. 11b, 200 mg/Kg once daily x5, control 10.1): 14.7 days
- Percent Treated Animals Control Animals (L-1210 lymphoid leukemia; Ex. 11b, 400 mg/Kg once daily x5): 155%
- Treated Group Survival Time (mean) (L-1210 lymphoid leukemia; Ex. 11b, 400 mg/Kg once daily x5, control 10.1): 15.7 days
- Percent Treated Animals Control Animals (L-1210 lymphoid leukemia; Ex. 11b, 600 mg/Kg once daily x5): 160%
- Treated Group Survival Time (mean) (L-1210 lymphoid leukemia; Ex. 11b, 600 mg/Kg once daily x5, control 10.1): 16.2 days
- activity against L-1210 lymphoid leukemia (L-1210 lymphoid leukemia; Examples 11a and 11b): active against L-1210 lymphoid leukemia
- drug toxicity (L-1210 lymphoid leukemia; Examples 11a and 11b, 50-800 mg/Kg): No drug toxicity was noted

Compound: NC(=O)c1ncn([C@@H]2O[C@H](COP(=O)(O)O)[C@@H](O)[C@H]2O)n1 [RIBAVIRIN 5' monophosphate]
- antitumor activity (malignant tumors [6]): inactive as antitumor compounds

Compound: NC(=O)c1ncn([C@@H]2O[C@H](CO)[C@@H](O)[C@H]2O)n1 [RIBAVIRIN, reference compound]
- antitumor activity (malignant tumors [6]): no significant antitumor activity
- in vitro antiviral activity (viruses): active in vitro antiviral agent
